In PubChem BioAssay (NCI):
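Results reflect a 48-hour exposure of cells in 96-well plates to compound at five concentrations. TGI marks complete inhibition of growth.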

How the values were obtained:
Test in all cases: NCI anticancer screen, dose series, 48 h
[1] = system: A549 NSCLC
[2] = system: HCT-15 colon
[3] = system: UO-31 renal
[4] = system: MOLT-4 leukemia
[5] = system: HOP-62 NSCLC
[6] = system: CCRF-CEM leukemia
[7] = system: CAKI-1 renal
[8] = system: HCC-2998 colon
[9] = system: SW-620 colon
[10] = system: NCI-H460 lung

O=c1oc2ccccc2c(O)c1Cc1ccc(Cc2c(O)c3ccccc3oc2=O)cc1
TGI [1]: > 100 µM
TGI [2]: > 100 µM
TGI [3]: > 100 µM
TGI [4]: > 100 µM
TGI [5]: > 100 µM
TGI [6]: > 100 µM
TGI [7]: > 100 µM
TGI [8]: > 100 µM
TGI [9]: > 100 µM
TGI [10]: > 100 µM

COC(=O)c1ccccc1C1CN=NC12Cc1c(ccc(C)c1C)C2=O (stereo not given)
TGI [1]: > 100 µM
TGI [2]: > 100 µM
TGI [3]: > 100 µM
TGI [4]: > 100 µM
TGI [5]: > 100 µM
TGI [6]: > 100 µM
TGI [7]: > 100 µM
TGI [8]: > 100 µM
TGI [9]: > 100 µM
TGI [10]: > 100 µM

O=C(NCc1ccccc1)c1cc2ccccc2oc1=Nc1cccc(C(F)(F)F)c1
TGI [1]: > 100 µM
TGI [2]: > 100 µM
TGI [3]: > 100 µM
TGI [4]: 92.5 µM
TGI [5]: > 100 µM
TGI [6]: > 100 µM
TGI [7]: > 100 µM
TGI [8]: 61.1 µM
TGI [9]: > 100 µM
TGI [10]: > 100 µM

CN(C)CCN(c1ccccn1)c1ccccn1
TGI [1]: > 100 µM
TGI [2]: > 100 µM
TGI [3]: > 100 µM
TGI [4]: > 100 µM
TGI [5]: > 100 µM
TGI [6]: > 100 µM
TGI [7]: > 100 µM
TGI [8]: > 100 µM
TGI [9]: > 100 µM
TGI [10]: > 100 µM

Cc1ccc(-c2cc(-c3ccco3)c(C#N)c(=S)[nH]2)cc1
TGI [1]: > 100 µM
TGI [2]: > 100 µM
TGI [3]: > 100 µM
TGI [4]: > 100 µM
TGI [5]: > 100 µM
TGI [6]: > 100 µM
TGI [7]: > 100 µM
TGI [8]: > 100 µM
TGI [9]: > 100 µM
TGI [10]: > 100 µM

Clc1cccc(-c2sc(-c3cccs3)cc2Cc2cccs2)c1
TGI [1]: > 10 µM
TGI [2]: > 10 µM
TGI [3]: > 10 µM
TGI [4]: > 10 µM
TGI [5]: > 10 µM
TGI [6]: > 10 µM
TGI [7]: > 10 µM
TGI [8]: > 10 µM
TGI [9]: > 10 µM
TGI [10]: > 10 µM

COC(=O)/C=C(\C)CC/C=C(\C)CCC1OC1(C)C (stereo not given)
TGI [1]: 24.1 µM
TGI [2]: 21.9 µM
TGI [3]: 20.8 µM
TGI [4]: 24.4 µM
TGI [5]: 26.7 µM
TGI [6]: 21.3 µM
TGI [7]: 22.3 µM
TGI [8]: 22.8 µM
TGI [9]: 28.4 µM
TGI [10]: 24.2 µM

CC1=CC2C3(C)C(C)(C(C)=CP3(=O)c3c(C(C)C)cc(C(C)C)cc3C(C)C)C1P2(=O)c1c(C(C)C)cc(C(C)C)cc1C(C)C (stereo not given)
TGI [1]: 9.08 µM
TGI [2]: 5.87 µM
TGI [3]: 4.36 µM
TGI [4]: 5.78 µM
TGI [5]: 10.4 µM
TGI [6]: 7.44 µM
TGI [7]: 15.9 µM
TGI [8]: 3.47 µM
TGI [9]: 13.6 µM
TGI [10]: 3.01 µM

Cc1c(N2CCOCC2)nc2ccc(Cl)cc2c1-c1ccccc1
TGI [1]: > 100 µM
TGI [2]: > 100 µM
TGI [3]: > 100 µM
TGI [4]: > 100 µM
TGI [5]: > 100 µM
TGI [6]: > 100 µM
TGI [7]: > 100 µM
TGI [8]: > 100 µM
TGI [9]: > 100 µM
TGI [10]: > 100 µM

O=CC(I)=C(c1ccccc1)c1ccccc1
TGI [1]: 36.1 µM
TGI [2]: 28.4 µM
TGI [3]: 29.1 µM
TGI [4]: 72.3 µM
TGI [5]: 32 µM
TGI [6]: > 69.9 µM
TGI [7]: 30.4 µM
TGI [8]: 35.8 µM
TGI [9]: 19.9 µM
TGI [10]: 32.8 µM

CN(O)C(=O)/C=C/c1ccc(OCc2cccc(Cl)c2)cc1
TGI [1]: 63.5 µM
TGI [2]: 29.1 µM
TGI [3]: 23.5 µM
TGI [4]: 39.6 µM
TGI [5]: > 100 µM
TGI [6]: 65.6 µM
TGI [7]: 62.6 µM
TGI [8]: 72.7 µM
TGI [9]: > 100 µM
TGI [10]: 43.3 µM

CC1(C)CC(=O)C2=C(C1)C(c1ccccc1Cl)C1C(=O)CC(C)(C)CC1(O)O2 (stereo not given)
TGI [1]: > 100 µM
TGI [2]: > 100 µM
TGI [3]: > 100 µM
TGI [4]: > 100 µM
TGI [5]: > 100 µM
TGI [6]: > 94.8 µM
TGI [7]: > 100 µM
TGI [8]: > 100 µM
TGI [9]: > 100 µM
TGI [10]: > 100 µM

CC(=O)O[C@@H](c1nccn1Cc1ccccc1)[C@H]1OC(C)(C)O[C@@H]1[C@H]1COC(C)(C)O1
TGI [1]: > 100 µM
TGI [2]: > 100 µM
TGI [3]: > 100 µM
TGI [4]: > 100 µM
TGI [5]: > 100 µM
TGI [6]: > 100 µM
TGI [7]: > 100 µM
TGI [8]: > 100 µM
TGI [9]: > 100 µM
TGI [10]: > 100 µM

COC(=O)CNC(=O)C(CSC(=O)OCC1c2ccccc2-c2ccccc21)NC(=O)CCC(NC(=O)OCC1c2ccccc2-c2ccccc21)C(=O)OC (stereo not given)
TGI [1]: 27.5 µM
TGI [2]: > 100 µM
TGI [3]: 35 µM
TGI [4]: 56.8 µM
TGI [5]: 40.2 µM
TGI [6]: 38.7 µM
TGI [7]: 19.9 µM
TGI [8]: 40.7 µM
TGI [9]: > 100 µM
TGI [10]: 59.2 µM

CN(/N=C1\C(=O)Nc2ccccc21)c1ccccc1
TGI [1]: > 100 µM
TGI [2]: > 100 µM
TGI [3]: > 100 µM
TGI [4]: > 100 µM
TGI [5]: > 100 µM
TGI [6]: > 100 µM
TGI [7]: > 100 µM
TGI [8]: > 100 µM
TGI [9]: > 100 µM
TGI [10]: > 100 µM

O=C(COc1ccc(OCC(=O)N/N=C/c2ccc(-c3ccc(Cl)cc3Cl)o2)c(Cl)c1)N/N=C/c1ccc(-c2ccc(Cl)cc2Cl)o1
TGI [1]: > 100 µM
TGI [2]: > 100 µM
TGI [3]: > 100 µM
TGI [4]: 5.5 µM
TGI [5]: > 100 µM
TGI [6]: 34.8 µM
TGI [7]: > 100 µM
TGI [8]: > 100 µM
TGI [9]: > 100 µM
TGI [10]: > 100 µM

O=c1oc2ccc3ccccc3c2cc1-c1cn2ccsc2n1
TGI [1]: > 100 µM
TGI [2]: 35.9 µM
TGI [3]: 31.7 µM
TGI [4]: 14.9 µM
TGI [5]: > 100 µM
TGI [6]: 51.6 µM
TGI [7]: 59 µM
TGI [8]: 67.9 µM
TGI [9]: 46.8 µM
TGI [10]: > 100 µM

COC(=O)[C@]1(C)CCC[C@@]2(C)C1CC[C@]13C=C(C(C)C)[C@H](CC21)CC3(Cl)C#N (stereo not given in full)
TGI [1]: > 100 µM
TGI [2]: > 100 µM
TGI [3]: > 100 µM
TGI [4]: > 100 µM
TGI [5]: > 100 µM
TGI [6]: 60.6 µM
TGI [7]: > 100 µM
TGI [8]: > 100 µM
TGI [9]: > 100 µM
TGI [10]: > 100 µM
